Assay results reported in ChEMBL document CHEMBL3751742, “A one pot, two-step synthesis of 5-arylpyrrolo[2,3-d]pyrimidines and screening of their preliminary antibacterial properties” (2016).
Calls of active or inactive are those of the source. The rule behind the calls is not given here.

Columns and labels:
Assay type in all cases: functional
Settings in all cases: for zone of inhibition at 5000 µg/mL: read-out: DIZ
[1] = test system: Escherichia coli; test: Antibacterial activity against gram-negative Escherichia coli at 5 mg/ml after 24 hrs by well diffusion method
[2] = test system: Pseudomonas aeruginosa; test: Antibacterial activity against gram-negative Pseudomonas aeruginosa at 5 mg/ml after 24 hrs by well diffusion method
[3] = test system: Bacillus mycoides; test: Antibacterial activity against gram-positive Bacillus mycoides at 5 mg/ml after 24 hrs by well diffusion method
[4] = test system: Bacillus subtilis; test: Antibacterial activity against gram-positive Bacillus subtilis at 5 mg/ml after 24 hrs by well diffusion method

| Structure (SMILES) | diameter of the inhibition zone (DIZ) [1] | diameter of the inhibition zone (DIZ) [2] | diameter of the inhibition zone (DIZ) [3] | diameter of the inhibition zone (DIZ) [4] | zone of inhibition at 5000 µg/mL [1] [mm] | zone of inhibition at 5000 µg/mL [2] [mm] | zone of inhibition at 5000 µg/mL [3] [mm] | zone of inhibition at 5000 µg/mL [4] [mm] |
| --- | --- | --- | --- | --- | --- | --- | --- | --- |
| Cn1c(=O)c2c(-c3ccc(Cl)cc3)c[nH]c2n(C)c1=O | inactive | inactive | inactive | inactive | – | – | – | – |
| Cc1ccc(-c2c[nH]c3c2c(=O)n(C)c(=O)n3C)cc1 | – | – | – | – | 15 | 20 | 12 | 20 |
| Cn1c(=O)c2c(-c3c[nH]c4ccccc34)c[nH]c2n(C)c1=O | – | – | inactive | – | 12 | 20 | – | 20 |
| Cn1c(=O)c2c(-c3cccs3)c[nH]c2n(C)c1=O | – | – | – | – | 13 | 20 | 13 | 20 |
| Cn1c(=O)c2c(-c3ccc(O)cc3)c[nH]c2n(C)c1=O | inactive | inactive | inactive | inactive | – | – | – | – |
| Cn1c(=O)c2c(-c3ccco3)c[nH]c2n(C)c1=O | – | – | inactive | – | 12 | 18 | – | 20 |
| CN(C)c1ccc(-c2c[nH]c3c2c(=O)n(C)c(=O)n3C)cc1 | – | – | – | – | 11 | 20 | 12 | 15 |
| Cn1c(=O)c2c(-c3ccccc3)c[nH]c2n(C)c1=O | inactive | inactive | inactive | inactive | – | – | – | – |
| Cn1c(=O)c2c(-c3cccc4ccccc34)c[nH]c2n(C)c1=O | – | – | – | – | 14 | 20 | 17 | 18 |
| COc1ccc(-c2c[nH]c3c2c(=O)n(C)c(=O)n3C)cc1 | inactive | inactive | inactive | inactive | – | – | – | – |
